This is an account of results in US8980793B2, “Phytosanitary formulations” (Centre National de la Recherche Scientifique (CNRS), priority 2007, dated 2015).

Series [1] can be described thus: Mikado spread on maize plants planted in a field, leaf surface checked by HPLC. Conditions: spread as Mikado. The source says: For this aim, the commercial formulation, Mikado®, has been spread on maize plants planted in a field.
The amount of sulcotrione and the formation of a by-product of the phototransformation on the surface of the leaves have been checked by HPLC.

For series [2] the following is noted: cited from earlier work.
Series [3] can be described thus: Photodegradation of sulcotrione on carnauba wax films irradiated in a Suntest reactor, HPLC analysis. The format is physicochemical. The settings on record: wax film, 6 hours irradiation. The source says: The methodology for conducting the tests on thin films of cuticular wax comprises the following steps: • Preparation of the wax film: the wax which is used is the commercial carnauba wax. • Adding the pesticide. On the one hand, the active ingredient, sulcotrione, and on the other hand, the commercial formulation, Mikado®(alone or with the adding of at least one extract of at least one tinctorial plant, is deposited under the form of an aqueous solution on the surface of the leaves. The amount of active ingredient deposited by surface unit is equivalent to the amount used in agriculture. The studies are conducted after evaporation of the water. • Recovering of the pesticide. The films are rinsed with water and analysed by HPLC. It has been checked that the step of recovering is quantitative. • Tests in darkness. The concentration of the active ingredients on the surface of the leaves in darkness is controlled in order to measure the penetration rate of the active ingredient in the films and its volatilisation. […]
The photoprotective effects of the extracts according to the invention have been evaluated as follows The surface concentration of the active ingredient (sulcotrione) on the wax films is of 0.76 10^−5 g/cm^2, the active ingredient being used either pure or under the form of a commercial formulation. […]

Series [4] is described as follows: Tests in darkness on wax films (penetration and volatilisation). The settings on record: wax film. The format is physicochemical. The source says:
The methodology for conducting the tests on thin films of cuticular wax comprises the following steps: • Preparation of the wax film: the wax which is used is the commercial carnauba wax. • Adding the pesticide. On the one hand, the active ingredient, sulcotrione, and on the other hand, the commercial formulation, Mikado®(alone or with the adding of at least one extract of at least one tinctorial plant, is deposited under the form of an aqueous solution on the surface of the leaves. The amount of active ingredient deposited by surface unit is equivalent to the amount used in agriculture. The studies are conducted after evaporation of the water. • Recovering of the pesticide. The films are rinsed with water and analysed by HPLC. It has been checked that the step of recovering is quantitative. • Tests in darkness. The concentration of the active ingredients on the surface of the leaves in darkness is controlled in order to measure the penetration rate of the active ingredient in the films and its volatilisation. […] Irradiation tests are conducted in a Suntest reactor simulating solar rays in temperate countries.

Molecules are shown by their SMILES.

`CS(=O)(=O)c1ccc(C(=O)C2C(=O)CCCC2=O)c(Cl)c1` [sulcotrione]: the “detection of sulcotrione on the surface of the leaves” value in series [1] (maize plants in a field, after 24 hours) is given as “no longer detected”. The same compound came in with a sulcotrione transformed in series [1] (surface of maize leaves in a field, after one hour) of 25%. In addition, in series [2], the half-life in water result was “about 80 days”. In addition, in series [3], the “Weight percentage of remaining active ingredient after 6 hours of UV exposure” value is reported as 5-10%. Besides, in series [4], the “penetration of the active ingredient into the films” value was “penetrates slowly into the films” and the “volatilisation of the active ingredient” value is reported as “very little active ingredients volatilize”.
